Source: patent publication US12194080B2, “Methods for identification, assessment, prevention, and treatment of metabolic disorders using PM20D1 and N-lipidated amino acids” (Dana-Farber Cancer Institute, Inc., priority 2015, dated 2025)

Columns and labels:
C2C12 cells = assay: Mitochondrial membrane potential by TMRM fluorescence; format: cell-based, mouse; settings: co-treatment with oligomycin 1 μM, 20 min; C18:1-Phe 50 μM, FCCP 0.4 μM
Protocol: Mitochondrial membrane potential was measured using tetramethylrhodamine methyl ester (TMRM, Life Technologies) fluorescence. C2C12 cells were plated in 6-well plates and grown to 80-90% confluence. Cells were then washed once with PBS and switched into Seahorse respiration buffer with the indicated compounds at the indicated concentrations: TMRM (100 nM), oligomycin (1 μM), FCCP (0.4 μM), and C18:1-Phe (10 or 50 μM). After 20 min. incubation at 37° C., the media was aspirated, cells were washed once with PBS, and trypsinized. Trypsinized cells were directly resuspended in PBS (total volume 300 μl), stored on ice, and analyzed on a FACSCanto™ II (BD Biosciences) with 20,000 events per sample.

[1] = Blood levels after a single i.p. dose; format: in vivo; settings: C57BL/6, mouse, ip, single 30 mg/kg i.p. dose, mean±SEM, n=3
Protocol: Animal experiments were performed according to procedures approved by the Beth Israel Deaconess Medical Center IACUC. Mice were maintained in 12 h light-dark cycles at 22° C. and fed a standard irradiated rodent chow diet. All experiments on wild-type mice were performed with male C57BL/6 mice purchased from Jackson Laboratories, except for the AAV experiments, which were performed with male C57BL/6 mice from Charles River. UCP1-KO (stock #017476) and 16-20 week DIO mice (stock #380050) were obtained from Jackson Laboratories. For AAV injection experiments, mice were gently warmed using a 250 W clear infrared heat lamp, immobilized, and injected via tail vein with 10^10 virus/mouse (diluted in saline) in a total volume of 100 μl/mouse. Where indicated, mice were placed on high-fat diet (60% fat, Research Diets). For cold exposure experiments, mice were group housed and placed at 4° C. for the indicated times. For the preparation of C18:1-Phe for in vivo injections, compounds were dissolved in 18:1:1 v/v/v saline:Kolliphor® EL (Sigma Aldrich):DMSO and sonicated until homogeneous. Mice were administered compounds at 5 μl/g body weight at the indicated doses. For all injection experiments, mice were mock injected with saline daily for 3 days prior to the start of the experiments. […]

[2] = system: Diet induced obese (DIO) mice; assay: Chronic daily i.p. administration of N-acyl amino acids to DIO mice (body weight, food intake, body composition, GTT); format: in vivo, mouse; settings: chronic treatment, C18:1-Phe 30 or 50 mg/kg/day, C20:4-Gly 15 mg/kg/day, i.p.
Protocol: Animal experiments were performed according to procedures approved by the Beth Israel Deaconess Medical Center IACUC. Mice were maintained in 12 h light-dark cycles at 22° C. and fed a standard irradiated rodent chow diet. All experiments on wild-type mice were performed with male C57BL/6 mice purchased from Jackson Laboratories, except for the AAV experiments, which were performed with male C57BL/6 mice from Charles River. UCP1-KO (stock #017476) and 16-20 week DIO mice (stock #380050) were obtained from Jackson Laboratories. For AAV injection experiments, mice were gently warmed using a 250 W clear infrared heat lamp, immobilized, and injected via tail vein with 10^10 virus/mouse (diluted in saline) in a total volume of 100 μl/mouse. Where indicated, mice were placed on high-fat diet (60% fat, Research Diets). For cold exposure experiments, mice were group housed and placed at 4° C. for the indicated times. For the preparation of C18:1-Phe for in vivo injections, compounds were dissolved in 18:1:1 v/v/v saline:Kolliphor® EL (Sigma Aldrich):DMSO and sonicated until homogeneous. Mice were administered compounds at 5 μl/g body weight at the indicated doses. For all injection experiments, mice were mock injected with saline daily for 3 days prior to the start of the experiments. For glucose tolerance tests (GTTs), mice received their final dose of compound the day prior to the assay and were then fasted overnight. Glucose was administered at 1.5 g/kg.
Energy expenditure, O2 consumption, CO2 production, respiratory exchange ratio, total locomotor activity, and food intake measurements were made with a 16-cage Columbus Instruments Oxymax Comprehensive Lab Animal Monitoring System (CLAMS) at ambient room temperature (21-23° C.). Mice were acclimated for one day in metabolic cages prior to data collection. Whole-body composition was assessed with an EchoMRI™ 3-in-1 on conscious mice.

What does the source list for CCCCCCCC/C=C\CCCCCCCC(=O)N[C@@H](Cc1ccccc1)C(=O)O [C18:1-Phe, Oleoyl-L-phenylalanine]?
decrease of TMRM fluorescence (C2C12 cells): ~45%; concentration at 2 h ([1]; 2 h post-injection): 3000 ± 300 nM; concentration at 6 h ([1]; 6 h post-injection): 400 ± 100 nM; food intake [2]: reduced food intake
